How the values were obtained:
human lymphocytes [1] = experiment: S ratio (apparently simple translocations / incompletes) measured by FISH after in vitro exposure to clastogenic agents; assay type: cell-based
Experimental: Identification and scoring of chromosome exchange aberrations was performed using FISH as described in Lucas, et al., Rapid translocation frequency analysis in humans decades after exposure to ionizing radiationi, Int'l. J. Radiat. Biol., 62:53-63 (1992). The scoring criteria used (apparently […] exchange-type painting pattern) was equivalent to those described in Simpson, et al. Estimating the true frequency of X-ray-induced complex chromosome exchanges using fluorescence in situ hybridization, Int'l. J. Radiat. Biol., 67:37-45 (1995). Only apparently simple translocations (ASTs) and dicentrics (ASD's) were used to calculate F ratios because equality for translocations and dicentrics has been shown only for AST's and ASD's mathematically (Lucas, et al., Int'l. J. Radiat. Biol., 69:145-153 (1996) and experimentally (Simpson, et al., Int'l. J. Radiat. Biol., 67:37-45 (1995); Kovacs et al., Radiation Research, 137:34-43. (1994). The translocation frequency measured by FISH was scaled to full-genome equivalents using the formula in Lucas, et al., Int'l. J. Radiat. Biol., 62:53-63 (1992), herein by reference. In brief, the formula relates the translocation frequency measured by FISH, Fp, to the genomic translocation frequencies, FG, through the fraction of the genome covered by the probes, fp, as follows:
Cells were irradiated with ^60 Co and ^137 Cs gamma rays in order to produce aberrations and detect the frequency of their occurance. Irradiation of cells with ^60 Co and ^137 Cs gamma rays has been described elsewhere. Lucas, J. N., et al., Rapid determination of human chromosome translocation frequency using a pair of chromosome-specific DNA probes, Int'l. J. Radiat. Biol., 56:35-44 (1989). […]
Except where noted, all data analyzed were obtained using FISH. […] The chromosome exchange aberrations scored here were apparently simple (AS) exchange-type painting patterns. Simpson, P. J. and Savage, J. R. K., Estimating the true frequency of X-ray-induced complex chromosome exchanges using fluorescence in situ hybridization, Int'l. […]

human lymphocytes [2] = experiment: S ratio measured by FISH in lymphocytes of humans exposed in vivo (benzene workers, tritium worker)
From the text: Except where noted, all data analyzed were obtained using FISH. Identification and scoring of chromosome exchange aberrations using chromosome painting to generate additional data employed the methods of J. M. Lucas, et al., Rapid translocation frequency analysis in humans decades after exposure to ionizing radiation, Int'l. […] The chromosome exchange aberrations scored here were apparently simple (AS) exchange-type painting patterns.
The pattern resembles that of translocations. An incomplete apparently simple (AS) translocation pattern resembles that of an incomplete reciprocal translocation where the solid painted fragment contains one centromere. These aberrations are those translocations where reciprocity of the exchange event is not registered, either because the exchanged is actually incomplete, or because one of the exchanges segments involves the extreme, unpainted, terminal part of the arm.
Incomplete apparently simple translocations were recognized as bicolor chromosome derivatives, where the centromere resides on the unpainted segment.
Where possible, data were combined, and in some cases, additional scoring was performed to improve statistics. The blind scoring of coded photomicrographs was performed by technicians unfamiliar with the project goal. Photomicrographs were either reanalyzed from previous studies, or new photomicrographs were analyzed for this study.
The significance estimate for testing the equality of S-ratios between any two populations compared here was calculated by a likelihood ratio test using a Generalized Linear Model (GLM) on two nested hypotheses. The four outcomes were assumed to be distributed as independent Poisson random variates with a logarithmic link function. The null hypothesis included terms for offset, population and outcome type. The alternative included an additional interaction term. […]

[3] = in vitro exposure, 1800 cells (bleomycin), 5,809 cells (tritium, 0.6 Gy)
[4] = 20 benzene workers with history of benzene poisoning, 18,583 cells

| Molecule | ASTs (apparently simple translocations) (human lymphocytes [1]; [3]) | Inc (incomplete apparently simple translocations) (human lymphocytes [1]; [3]) | S ratio compared with low-LET radiation (human lymphocytes [1]; in vitro, vs low-LET radiation) | ASTs (apparently simple / complete translocations) (human lymphocytes [2]; [4]) | Inc (incomplete apparently simple translocations) (human lymphocytes [2]; [4]) | S ratio compared with low-LET radiation (human lymphocytes [2]; benzene workers, vs low-LET radiation) |
| --- | --- | --- | --- | --- | --- | --- |
| bleomycin | 49 | 21 | significantly lower than those measured for low-LET radiation | – | – | – |
| c1ccccc1 [Benzene, benzene] | – | – | – | 50 | 25 | significantly lower than those measured for low-LET radiation |
